Measurements from patent publication US20240390432A1, “ENGINEERED VECTORS AND ORGANISMS CONTAINING THE SAME FOR ISOFLAVONE CONVERSION IN THE GUT” (Board of Regents, The University of Texas System, priority 2021, published 2024).

Experiments:
[1] = Equol-producing postmenopausal women, purified supplement; cited from earlier work
ERbeta = ERbeta (Homo sapiens, UniProt Q92731); details: unlike products activating ERalpha, androgen, glucocorticoid, progesterone, mineralocorticoid receptors; cited from earlier work
[2] = Serum Equol levels of mice given soy hydrogel and probiotic via drinking water; type: in vivo; details: mouse, oral, positive control: Equol supplemented directly in hydrogel, no Nissle strains
Method: Serum Equol levels of the mice were measured after 1 week of consumption of a low or high soy content supplement (1× or 8× soy loaded hydrogel). […] Two sets of negative controls were provided as reference. […] In addition, a positive control group consumed Equol that was supplement directly in the hydrogel to reveal, as expected, a very high elevation in serum Equol concentration reaching almost 5 μM without the addition of the engineered Nissle P1 and Nissle P2 strains.

Chain of ERbeta (Q92731 whole entry, species assumed): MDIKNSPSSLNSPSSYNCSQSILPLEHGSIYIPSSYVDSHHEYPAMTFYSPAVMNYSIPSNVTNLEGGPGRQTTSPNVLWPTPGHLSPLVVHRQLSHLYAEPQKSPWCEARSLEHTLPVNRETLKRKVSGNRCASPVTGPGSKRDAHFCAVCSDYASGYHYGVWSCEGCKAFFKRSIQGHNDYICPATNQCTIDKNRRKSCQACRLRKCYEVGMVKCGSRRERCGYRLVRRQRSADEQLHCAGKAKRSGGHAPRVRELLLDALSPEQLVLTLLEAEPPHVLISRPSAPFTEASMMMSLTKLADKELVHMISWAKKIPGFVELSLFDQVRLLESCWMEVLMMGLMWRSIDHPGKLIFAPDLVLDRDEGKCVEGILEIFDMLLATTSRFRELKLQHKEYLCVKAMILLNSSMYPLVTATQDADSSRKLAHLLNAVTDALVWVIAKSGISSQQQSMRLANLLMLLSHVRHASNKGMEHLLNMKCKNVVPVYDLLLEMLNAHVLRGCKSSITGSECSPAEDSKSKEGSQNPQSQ

Row | SMILES | effect on serum LDL-C and C-reactive protein [1] | receptor selectivity (ERbeta) | concentration at 1 week [2]
1 | O=c1c(-c2ccc(O)cc2)coc2cc(O)ccc12 [Daidzein] | not seen |  | 
2 | Oc1ccc([C@H]2COc3cc(O)ccc3C2)cc1 [Equol] |  | selective agonist for ERbeta | ~5 µM
